# From patent US20150352075A1, “Treatment of Alzheimer's and Cognitive Impairment With Andrographolides” (INNOBIOSCIENCE, LLC, priority 2013, published 2015)
# Columns and labels:
# [1] = system: CA3-CA1 connections in hippocampal slices; assay: Electrophysiology (fEPSP, PPF, LTP, LTD) in Wt hippocampal slices; type: cell-based, mice
# Description: Slices were transferred to an experimental chamber (2 ml), superfused (3 ml/min, at 20-22° C.) with gassed ACSF and visualized by trans-illumination with a binocular microscope (MSZ-10, Nikon, Melville, N.Y.). […] The stimulation was in the Stratum Radiatum within 100-200 μm from the recording site. The paired pulse facilitation index was calculated by ((R2−R1)/R1), where R1 and R2 were the peak amplitudes of the first and second fEPSP respectively. To generate LTP we used Theta Burst Stimulation (TBS) consisting of 5 trains of stimulus with an inter-train interval of 20 s. Each train consisted of 10 bursts at 5 Hz and each burst having 4 pulses at 100 Hz. To generate LTD we used Low Frequency Stimulation (LFS) consisting in 900 paired pulses at 1 Hz. Recordings were filtered at 2.0-3.0 kHz, sampled at 4.0 kHz using an A/D converter, and stored with pClamp 10 (Molecular Devices). Evoked postsynaptic responses were analyzed off-line, using an analysis software (pClampfit, Molecular Devices), which allowed visual detection of events, computing only those events that exceeded and arbitrary threshold.
# [2] = system: APPswe/PS-1 double transgenic mice; assay: Immunoblot of synaptic proteins in hippocampus and cortex of treated mice; type: in vivo
# [3] = system: Wnt/β-catenin pathway in hippocampal slices; assay: Wnt pathway mechanism in hippocampal slices (sFRP, Dkk-1, Dvl-3 mobility shift, time course); type: cell-based, mice
# Description: Slice preparation. […] Transverse slices (250-300 μm) from the dorsal hippocampus were cut under oxygen-saturated cold artificial cerebrospinal fluid using a Vibroslice microtome (VSL, World Precision Instruments, Inc WPI, Sarasota, Fla.). After obtained, slices were incubated in ACSF for at least than one hour at room temperature, in order to stabilize activity. In every moment during dissection, slicing and experimentation slices were oxygenated with 95% oxygen-5% carbon dioxide.
# Briefly, tissues were homogenized in RIPA buffer (10 mM Tris-Cl, pH 7.4, EDTA 5 mM, 1% NP-40, 1% sodium deoxycholate, and 1% SDS) supplemented with a protease inhibitor mixture (1 mM PMSF, 2 μg/mL aprotinin, 1 μg/mL pepstatin and 10 μg/mL benzamidine) and phosphatase inhibitors (25 mMNaF, 100 mM Na3VO4, 1 mM EDTA and 30 μM Na4P207) using a Potter homogenizator and then passed sequentially through different caliber syringes. […] Protein concentration was determined using the BCA Protein Assay Kit (Pierce). Samples were resolved by […] 10% SDS-PAGE and transferred to a PVDF membrane. The reactions were followed by incubation with anti-mouse, anti-goat or anti-rabbit IgG peroxidase conjugated (Pierce, Rockford, Ill.) and developed using an ECL kit (Western Lightning Plus ECL, PerkinElmer).
# [4] = system: APPswe/PS-1 double transgenic mice; assay: Thioflavine-S staining of amyloid plaques in brain of treated mice; type: in vivo
# [5] = young APPswe/PS-1 mice, vs controls
structure (smiles),measurement,setting,value
"C=C1CC[C@@H]2C(C)(CO)C(O)CC[C@@]2(C)C1C/C=C1/C(=O)OCC1O (stereo in doubt) [ANDRO, 3-(2-(Decahydro-6-hydroxy-5-(hydroxymethyl)-5,8a-dimethyl-2-methylenenaphthyl)ethylidene)dihydro-4-hydroxyfuran-2(3H)-one]",fEPSP amplitude (basal synaptic transmission),"[1]; ANDRO (5 μM), slices exposed for 30 min",increased the fEPSP amplitude
same,paired pulse facilitation (PPF) ratio,[1]; Wt hippocampal slices,does not increase PPF ratio
same,LTP induction or maintenance,"[1]; Wt hippocampal slices, TBS, in the presence of ANDRO",do not observed alteration in the LTP induction or maintenance
same,induction of LTD,"[1]; hippocampal slices, LFS",the LTD was inhibited
same,PSD-95 and GluA2 levels,[2]; mature Tg mice,increase of PSD-95 and GluA2 levels
same,total levels of pre-synaptic proteins SYP and VAMP,[2]; young APPswe/PS-1 mice,unaltered
same,"levels of post-synaptic proteins (Shank, GluN2B, GluA2, PSD-95)","[2]; young APPswe/PS-1 mice, hippocampus and cortex",significantly recovers the post-synaptic proteins
same,speed of increase in GSK3β pSer-9 and decrease in pTyr-216,[3]; compared to Wnt-3a treatment,faster
same,mobility shift (phosphorylation) of Dvl-3,"[3]; hippocampal slices, 1 h, western blot",does not induce a mobility shift of Dvl-3
same,time at which total levels of β-catenin increased,"[3]; slices from 2 month-old wild-type mice, 5 μM ANDRO, Wnt3a conditioned medium or 10 μM 6-B10",15 min
same,plaque size distribution (cumulative frequency),[4]; 7 month-old APPswe/PS-1 mice,shift in their distribution toward smaller plaque size
same,amyloid plaques stained with Th-S,"[4]; 7 month-old APPswe/PS-1 mice, cortex and hippocampus, vs untreated",reduction of amyloid plaques stained with Th-S
same,amyloid deposit levels (amyloid burden area),"[4]; FIG. 3F mice (printed young; legend: old, 12 month-old), hippocampus or cortex",no change in amyloid deposit levels
same,most immature plaques (type 1),[4]; [5],increase significantly
same,type 2a and 2c amyloid plaques in total brain,[4]; [5],no significant differences
same,type 2b amyloid plaques in brain,[4]; [5],significantly decreased
